Molecular target: T1, GlyT1 (Homo sapiens, UniProt P48067)
T1 construct: expressed in transfected cells
T1 sequence (P48067 1-706): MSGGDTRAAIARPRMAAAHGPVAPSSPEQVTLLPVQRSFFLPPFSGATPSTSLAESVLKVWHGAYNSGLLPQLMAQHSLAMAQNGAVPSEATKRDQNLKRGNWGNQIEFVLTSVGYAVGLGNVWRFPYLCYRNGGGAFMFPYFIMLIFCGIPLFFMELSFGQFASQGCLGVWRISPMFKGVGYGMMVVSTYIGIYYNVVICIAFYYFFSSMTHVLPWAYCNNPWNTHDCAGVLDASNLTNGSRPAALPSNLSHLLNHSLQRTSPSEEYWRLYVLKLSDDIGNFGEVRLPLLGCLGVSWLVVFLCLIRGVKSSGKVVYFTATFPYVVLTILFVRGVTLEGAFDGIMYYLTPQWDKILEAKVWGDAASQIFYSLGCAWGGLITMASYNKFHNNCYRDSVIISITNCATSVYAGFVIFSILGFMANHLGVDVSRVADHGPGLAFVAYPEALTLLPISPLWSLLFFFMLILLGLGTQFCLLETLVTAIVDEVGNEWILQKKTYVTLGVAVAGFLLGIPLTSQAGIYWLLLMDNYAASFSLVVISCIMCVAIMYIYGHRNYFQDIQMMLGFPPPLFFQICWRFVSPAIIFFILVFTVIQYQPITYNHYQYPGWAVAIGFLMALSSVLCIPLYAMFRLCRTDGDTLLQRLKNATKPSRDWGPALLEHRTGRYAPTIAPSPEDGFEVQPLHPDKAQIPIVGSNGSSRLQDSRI
Assay: Glycine Transporter 1 (GlyT1) uptake assay, scintillation proximity assay of [14C]-glycine uptake
Assay type: cell-based
Details: SPA, four parameter logistic fit, read-out: GlyT1 (pIC50) (converted)
Procedure, shortened: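 IC50 values derive from four-parameter logistic curves fitted to dose-response data. Uptake of [14C]-glycine measured in scintillation proximity format.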

| IC50 [µM] | Compound |
| --- | --- |
| < 0.1 | COc1c(C#N)ccc(OCC(C)(C)C)c1C(=O)N1Cc2cn(-c3ccc(F)cc3)nc2C1 [Example 511] |
| < 0.1 | COc1c(C#N)ccc(OCC2(C)CC2)c1C(=O)N1Cc2cn(-c3ccc(F)cc3)nc2C1 [Example 512, 3-[2-(4-Fluorophenyl)-2H 4H 5H 6H-pyrrolo[3,4-c]pyrazole-5-carbonyl]-2-methoxy-4-[(1-methylcyclopropyl)methoxy]benzonitrile] |
| < 0.1 | COc1c(C#N)ccc(OC2CCCC2)c1C(=O)N1Cc2cn(-c3ccc(F)cc3)nc2C1 [Example 513, 4-(Cyclopentyloxy)-3-[2-(4-fluorophenyl)-2H 4H 5H 6H-pyrrolo[3,4-c]pyrazole-5-carbonyl]-2-methoxybenzonitrile] |
| < 0.1 | COc1c(C#N)ccc(N2CCC(F)(F)C2)c1C(=O)N1Cc2cn(-c3ccc(F)cc3)nc2C1 [Example 514, 4-(3 3-Difluoropyrrolidin-1-yl)-3-[2-(4-fluorophenyl)-2H 4H 5H 6H-pyrrolo[3,4-c]pyrazole-5-carbonyl]-2-methoxybenzonitrile] |
| < 0.1 | COc1c(C#N)ccc(OC(C)C)c1C(=O)N1Cc2cn(-c3ccc(F)cc3)nc2C1 [Example 515, 3-[2-(4-Fluorophenyl)-2H 4H 5H 6H-pyrrolo[3,4-c]pyrazole-5-carbonyl]-2-methoxy-4-(propan-2-yloxy)benzonitrile] |
| < 0.1 | COc1c(C#N)ccc(OC(C)(C)C(F)(F)F)c1C(=O)N1Cc2cn(-c3ccc(F)cc3)nc2C1 [Example 516, 3-[2-(4-Fluorophenyl)-2H 4H 5H 6H-pyrrolo[3,4-c]pyrazole-5-carbonyl]-2-methoxy-4-[(1 1 1-trifluoro-2-methylpropan-2-yl)oxy]benzonitrile] |
| < 0.1 | COc1c(C#N)ccc(OC(C)CF)c1C(=O)N1Cc2cn(-c3ccc(F)cc3)nc2C1 (stereo not drawn) [Example 517, 3-[2-(4-Fluorophenyl)-2H 4H 5H 6H-pyrrolo[3,4-c]pyrazole-5-carbonyl]-4-[(1-fluoropropan-2-yl)oxy]-2-methoxybenzonitrile] |
| < 0.1 | CCC(CC)Oc1ccc(C#N)c(OC)c1C(=O)N1Cc2cn(-c3ccc(F)cc3)nc2C1 [Example 518, 3-[2-(4-Fluorophenyl)-2H 4H 5H 6H-pyrrolo[3,4-c]pyrazole-5-carbonyl]-2-methoxy-4-(pentan-3-yloxy)benzonitrile] |
| < 0.1 | COc1c(C#N)ccc(OC2COC2)c1C(=O)N1Cc2cn(-c3ccc(F)cc3)nc2C1 [Example 519, 3-[2-(4-Fluorophenyl)-2H 4H 5H 6H-pyrrolo[3,4-c]pyrazole-5-carbonyl]-2-methoxy-4-(oxetan-3-yloxy)benzonitrile] |
| < 0.1 | COc1c(C#N)ccc(OCC(F)F)c1C(=O)N1Cc2cn(-c3ccc(F)cc3)nc2C1 [Example 520, 4-(2 2-Difluoroethoxy)-3-[2-(4-fluorophenyl)-2H 4H 5H 6H-pyrrolo[3,4-c]pyrazole-5-carbonyl]-2-methoxybenzonitrile] |
| 0.1 to 1 | CCCC(C)Oc1ccc(C#N)c(OC)c1C(=O)N1Cc2cn(-c3ccc(F)cc3)nc2C1 (stereo not drawn) [Example 521, 3-[2-(4-Fluorophenyl)-2H 4H 5H 6H-pyrrolo[3,4-c]pyrazole-5-carbonyl]-2-methoxy-4-(pentan-2-yloxy)benzonitrile] |
| < 0.1 | COc1c(C#N)ccc(OCC(C)C)c1C(=O)N1Cc2cn(-c3ccc(F)cc3)nc2C1 [Example 522, 3-[2-(4-Fluorophenyl)-2H 4H 5H 6H-pyrrolo[3,4-c]pyrazole-5-carbonyl]-2-methoxy-4-(2-methylpropoxy)benzonitrile] |
| < 0.1 | COc1c(C#N)ccc(OC(C)C(C)C)c1C(=O)N1Cc2cn(-c3ccc(F)cc3)nc2C1 (stereo not drawn) [Example 523, 3-[2-(4-Fluorophenyl)-2H 4H 5H 6H-pyrrolo[3,4-c]pyrazole-5-carbonyl]-2-methoxy-4-[(3-methylbutan-2-yl)oxy]benzonitrile] |
| < 0.1 | COc1c(C#N)ccc(OC(C)C2CC2)c1C(=O)N1Cc2cn(-c3ccc(F)cc3)nc2C1 (stereo not drawn) [Example 524, 4-(1-Cyclopropylethoxy)-3-[2-(4-fluorophenyl)-2H 4H 5H 6H-pyrrolo[3,4-c]pyrazole-5-carbonyl]-2-methoxybenzonitrile] |
| < 0.1 | COc1c(C#N)ccc(OC2(C)CC2)c1C(=O)N1Cc2cn(-c3ccc(F)cc3)nc2C1 [Example 525, 3-[2-(4-Fluorophenyl)-2H 4H 5H 6H-pyrrolo[3,4-c]pyrazole-5-carbonyl]-2-methoxy-4-(1-methylcyclopropoxy)benzonitrile] |
| < 0.1 | CC(C)(C)COc1ccc(C#N)cc1C(=O)N1Cc2cn(-c3ccc(F)cc3)nc2C1 [Example 526, 4-(2 2-Dimethylpropoxy)-3-[2-(4-fluorophenyl)-2H 4H 5H 6H-pyrrolo[3,4-c]pyrazole-5-carbonyl]benzonitrile] |
| 1 to 10 | N#Cc1ccc(OCC(F)F)c(C(=O)N2Cc3cn(-c4ccc(F)cc4)nc3C2)c1 [Example 527, 4-(2 2-Difluoroethoxy)-3-[2-(4-fluorophenyl)-2H 4H 5H 6H-pyrrolo[3,4-c]pyrazole-5-carbonyl]benzonitrile] |
| 0.1 to 1 | N#Cc1ccc(OCC(F)(F)F)c(C(=O)N2Cc3cn(-c4ccc(F)cc4)nc3C2)c1 [Example 528, 3-[2-(4-Fluorophenyl)-2H 4H 5H 6H-pyrrolo[3,4-c]pyrazole-5-carbonyl]-4-(2 2 2-trifluoroethoxy)benzonitrile] |
| 0.1 to 1 | CC(C)Oc1ccc(C#N)cc1C(=O)N1Cc2cn(-c3ccc(F)cc3)nc2C1 [Example 529, 3-[2-(4-Fluorophenyl)-2H 4H 5H 6H-pyrrolo[3,4-c]pyrazole-5-carbonyl]-4-(propan-2-yloxy)benzonitrile] |
| 0.1 to 1 | C[C@H](Oc1ccc(C#N)cc1C(=O)N1Cc2cn(-c3ccc(F)cc3)nc2C1)C(F)(F)F [Example 530, 3-[2-(4-Fluorophenyl)-2H 4H 5H 6H-pyrrolo[3,4-c]pyrazole-5-carbonyl]-4-{[(2S)-1 1 1-trifluoropropan-2-yl]oxy}benzonitrile] |
| 0.1 to 1 | N#Cc1ccc(OCC2CC2)c(C(=O)N2Cc3cn(-c4ccc(F)cc4)nc3C2)c1 [Example 531, 4-(Cyclopropylmethoxy)-3-[2-(4-fluorophenyl)-2H 4H 5H 6H-pyrrolo[3,4-c]pyrazole-5-carbonyl]benzonitrile] |
| 0.1 to 1 | CC(C)(Oc1ccc(C#N)cc1C(=O)N1Cc2cn(-c3ccc(F)cc3)nc2C1)C(F)(F)F [Example 532, 3-[2-(4-Fluorophenyl)-2H 4H 5H 6H-pyrrolo[3,4-c]pyrazole-5-carbonyl]-4-[(1 1 1-trifluoro-2-methylpropan-2-yl)oxy]benzonitrile] |
| < 0.1 | COc1c(C#N)ccc(OCC(F)(F)F)c1C(=O)N1Cc2cn(-c3ccc(F)c(C)n3)nc2C1 [Example 533, 3-[2-(5-Fluoro-6-methylpyridin-2-yl)-2H 4H 5H 6H-pyrrolo[3,4-c]pyrazole-5-carbonyl]-2-methoxy-4-(2 2 2-trifluoroethoxy)benzonitrile] |
| 0.1 to 1 | COc1c(C#N)ccc(OCC(F)F)c1C(=O)N1Cc2cn(-c3ccc(F)c(C)n3)nc2C1 [Example 534, 4-(2 2-Difluoroethoxy)-3-[2-(5-fluoro-6-methylpyridin-2-yl)-2H 4H 5H 6H-pyrrolo[3,4-c]pyrazole-5-carbonyl]-2-methoxybenzonitrile] |
| < 0.1 | COc1c(C#N)ccc(OC(C)C)c1C(=O)N1Cc2cn(-c3ccc(F)c(C)n3)nc2C1 [Example 535, 3-[2-(5-Fluoro-6-methylpyridin-2-yl)-2H 4H 5H 6H-pyrrolo[3,4-c]pyrazole-5-carbonyl]-2-methoxy-4-(propan-2-yloxy)benzonitrile] |
| 0.1 to 1 | COc1c(C#N)ccc(OCC2(C)COC2)c1C(=O)N1Cc2cn(-c3ccc(F)c(C)n3)nc2C1 [Example 536, 3-[2-(5-Fluoro-6-methylpyridin-2-yl)-2H 4H 5H 6H-pyrrolo[3,4-c]pyrazole-5-carbonyl]-2-methoxy-4-[(3-methyloxetan-3-yl)methoxy]benzonitrile] |
| 0.1 to 1 | COc1c(C#N)ccc(OC2COC2)c1C(=O)N1Cc2cn(-c3ccc(F)c(C)n3)nc2C1 [Example 537, 3-[2-(5-Fluoro-6-methylpyridin-2-yl)-2H 4H 5H 6H-pyrrolo[3,4-c]pyrazole-5-carbonyl]-2-methoxy-4-(oxetan-3-yloxy)benzonitrile] |
| 1 to 10 | Cc1cc(-n2cc3c(n2)CN(C(=O)c2cc(C#N)ccc2OCC2(C)COC2)C3)ccn1 [Example 538, 4-[(3-Methyloxetan-3-yl)methoxy]-3-[2-(2-methylpyridin-4-yl)-2H 4H 5H 6H-pyrrolo[3,4-c]pyrazole-5-carbonyl]benzonitrile] |
| 0.1 to 1 | Cc1cc(-n2cc3c(n2)CN(C(=O)c2cc(C#N)ccc2OCC(F)(F)F)C3)ccn1 [Example 539, 3-[2-(2-Methylpyridin-4-yl)-2H 4H 5H 6H-pyrrolo[3,4-c]pyrazole-5-carbonyl]-4-(2 2 2-trifluoroethoxy)benzonitrile] |
| < 0.1 | Cc1cc(-n2cc3c(n2)CN(C(=O)c2cc(C#N)ccc2OCC2CC2)C3)ccn1 [Example 540, 4-(Cyclopropylmethoxy)-3-[2-(2-methylpyridin-4-yl)-2H 4H 5H 6H-pyrrolo[3,4-c]pyrazole-5-carbonyl]benzonitrile] |
